From ChEMBL document CHEMBL3232720, “Boseongazepines A-C, pyrrolobenzodiazepine derivatives from a Streptomyces sp. 11A057” (Bioorg Med Chem Lett, 2014)
Active and inactive are the calls of the source. No cut-off for these calls is given here.

How the values were obtained:
Jurkat = experiment: Growth inhibition of human Jurkat cells after 96 hrs by EZ-CyTox cell viability assay; type: functional, cell-based
K562 = experiment: Growth inhibition of human K562 cells after 96 hrs by EZ-CyTox cell viability assay; type: functional, cell-based; details: K562, 96 h
HL-60 = experiment: Growth inhibition of human HL60 cells after 96 hrs by EZ-CyTox cell viability assay; type: functional, cell-based; details: HL-60, 96 h
HepG2 = experiment: Growth inhibition of human HepG2 cells after 96 hrs by EZ-CyTox cell viability assay; type: functional, cell-based; details: HepG2, 96 h
Escherichia coli = experiment: Antimicrobial activity against Escherichia coli assessed as growth inhibition at 50 ug/disk after 48 hrs by paper disk method; type: functional, organism-based
Bacillus subtilis = experiment: Antimicrobial activity against Bacillus subtilis assessed as growth inhibition at 50 ug/disk after 48 hrs by paper disk method; type: functional, organism-based
Staphylococcus aureus = experiment: Antimicrobial activity against Staphylococcus aureus assessed as growth inhibition at 50 ug/disk after 48 hrs by paper disk method; type: functional, organism-based
Salinivibrio costicola = experiment: Antimicrobial activity against Vibrio costicola assessed as growth inhibition at 50 ug/disk after 48 hrs by paper disk method; type: functional, organism-based
Candida albicans = experiment: Antimicrobial activity against Candida albicans assessed as growth inhibition at 50 ug/disk after 48 hrs by paper disk method; type: functional, organism-based
Aspergillus fumigatus = experiment: Antimicrobial activity against Aspergillus fumigatus assessed as growth inhibition at 50 ug/disk after 48 hrs by paper disk method; type: functional, organism-based

SMILES | IC50 (Jurkat) [µM] | IC50 (K562) [µM] | IC50 (HL-60) [µM] | IC50 (HepG2) [µM] | growth inhibition (GI) (Escherichia coli) | growth inhibition (GI) (Bacillus subtilis) | growth inhibition (GI) (Staphylococcus aureus) | growth inhibition (GI) (Salinivibrio costicola) | growth inhibition (GI) (Candida albicans) | growth inhibition (GI) (Aspergillus fumigatus)
C/C=C1\C[C@H]2C(=O)Nc3c(OC)cccc3C(=O)N2C1 | > 100 | > 100 | > 100 | > 100 | inactive | inactive | inactive | inactive | inactive | inactive
COc1cccc2c1NC[C@@H]1CC(C(C)=O)=CN1C2=O | 72 | > 100 | > 100 | 56.1 | inactive | inactive | inactive | inactive | inactive | inactive
C/C=C1\C[C@H]2CNc3ccccc3C(=O)N2C1 | 23.9 | 58.8 | 64.5 | 68.9 | inactive | inactive | inactive | inactive | inactive | inactive
C/C=C1\C[C@H]2CNc3c(OC)cccc3C(=O)N2C1 [USABAMYCIN B] | 6.26 | 10.1 | 13.5 | 10.6 | inactive | inactive | inactive | inactive | inactive | inactive
